Results as given in patent publication US20260224595A1, “COMPOUNDS FOR THE TREATMENT OF MYOTONIC DYSTROPHY” (ETH ZURICH, priority 2022, published 2026).

Tested on: targetomes of let-7, miR-1, miR-9, miR-29, miR-30, miR-107 and miR-181
Experiment: RNA-Seq of miRNA targetomes in DM myoblasts and myotubes
Assay type: cell-based, human
Description: As described in Example 3, total RNA was isolated from DM-patient and healthy cells, and cDNA libraries were prepared for three conditions (healthy volunteer (HV); DM; DM+Compound II) for DM1 and DM2 backgrounds. The expression levels of predicted targetomes of miRNAs let-7, miR-1, miR-9, miR-29, miR-30, miR-107 and miR-181 were then compared, using miR-122 as well as more than 2,000 transcripts that are not predicted targets of any miRNA as negative controls. Three pair-wise comparisons were performed to measure: i) how a targetome varies between healthy and diseased cells (HV versus DM), ii) how a targetome responds to treatment with the inventive compounds (DM versus DM+Compound II) and, iii) how a Compound II-treated DM-targetome compares to that of a healthy signature. For each pair-wise comparison, the third dataset was used as a reference and the fold changes were calculated for each target transcript (e.g. DM1 vs. DM1+Compound II, with fold changes calculated relative to HV).
Primary myoblasts or myotubes derived from DM1 or DM2 patient samples and non-DM healthy control individuals were cultured for 90% confluence and then treated with 120 μM Compound II for 72 h. Myoblasts were harvested by trypsinization, and separately myotubes were isolated by a minimal trypsin treatment followed by gentle centrifugation to sediments to separate them from the remaining mono-nucleated cells. Cell pellets were washed with PBS and RNA isolation was performed with Trizol® by using the Dircet-zol™ RNA MiniPrep Plus Kit (ZYMO Research, Freiburg, Germany). Library preparation was performed using the TruSeq Stranded mRNA Kit (Illumina, San Diego, CA, USA) with the TruSeq RNA Single Index Set A (Illumina) according to the recommended procedure. Quality and size distribution of the generated libraries was validated using an Agilent 2100 bioanalyzer with high-sensitivity RNA chip (Agilent) and RNA yield was measured using the Qubit […] HS Assay Kit followed by pooling of the libraries in batches of 12 and sequencing of […] pooled library on an Nextseq 500/High Output Flow Cell Cartridge using a paired end, 2×76 reads, single index protocol.
RNA-Seq reads were mapped to the human genome (build GRCh38) using STAR (Dobin et al., (2013). STAR: ultrafast universal RNA-seq aligner. Bioinformatics 29, 15-21) with gene annotations from gencode (www.gencodegenes.org; version 40). Reads mapping uniquely to exons were counted for each gene using htseq-count (Anders et al., (2015). HTSeq—a Python framework to work with high-throughput sequencing data. Bioinformatics 31, 166-169) with the parameter -s reverse and -m intersection_strict. Expression levels were quantified as TPM (transcripts per million), by dividing read counts by the total exon length for each gene, and then normalising by the sum of all values in each sample and multiplying by one million. Fold changes were calculated between the average expression levels in three conditions: DMSO-treated healthy volunteer samples (HV), DMSO-treated DM patient samples (DM), and Compound II-treated DM patient samples (DM+Compound II). Genes with an average TPM>1 were considered in each of these three conditions. For myoblasts, three samples were included for all conditions. For myotubes, three samples were included for the HV, DM1 and DM2 conditions, but two Compound II-treated samples were excluded (one DM1 and one DM2) due to a very low read count (<500000 exonic reads), resulting in […] and two DM2+Compound II myotube samples being included in the analysis. Cumulative density functions of expression changes of miRNA target genes were plotted using custom python scripts.

CC(=O)N(C)c1cccc(-c2ccc3nnc(C)n3n2)c1 [Compound II]
shift of the targetomes of the miRNAs tested versus healthy volunteers (DM1 and DM2 cells, FIGS. 5B, 5D, 6B and 6D): levels comparable to those of healthy volunteers
median suppression of the targetomes of let-7 and miRs -9, -1, -29, -30, -107, -181 (DM1 myoblasts, 120 μM, 72 h, RNA-Seq): 10-12%
CDF curves of DM1+Compound II versus HV targetome signature for miR-1, miR-9, miR-29, miR-30 and miR-107 (DM1 myoblasts, FIG. 5B): indistinguishable overlay
median suppression of the seven miRNA targetomes (DM1 myotubes, 120 μM, 72 h, RNA-Seq): 12-15%
median suppression of the seven targetomes (DM2 myoblasts, 120 μM, 72 h, RNA-Seq): 22-25%
targetome shift versus HV signature (DM2 myoblasts, FIG. 5D): overshoot
median suppression of the seven miRNA targetomes (DM2 myotubes, 120 μM, 72 h, RNA-Seq): 10-12%
